Laboratory results taken from patent US20050019315A1, “Odor control compositions and methods” (Novozymes North America, Inc., priority 2003, published 2005).

Experiment: Odor panel rating of glucose/gluconic acid solutions inoculated with odorous filtrate
Conditions: capped beakers, 40° C., 7 days
Experimental: Another 250 mL of (4) 10 mM glucose was put it in beaker 4. 20 mg protein/L of carbohydrate oxidase (Microdochium nivale carbohydrate oxidase, Novozymes A/S) was added to beaker 4 and it was kept at a 40° C. for 1 hr. 0.5 mL of odorous 3-day filtrate from the aerobic control in Example 2 was added to all of the beakers. The beaker were capped and placed in a 40° C. water bath for 7 days. At the end of the incubation, a panel smelled the samples as described in Example 1.

O=C(O)[C@H](O)[C@@H](O)[C@H](O)[C@H](O)CO [Gluconic Acid, gluconic acid]
formation of odor (in words): will not lead to odorous smell | Odor Level (0.5 mL odorous filtrate added, rating 1 to 5, 5 worst): 1
